Test results as given in PubChem BioAssay AID624129 (Sanford-Burnham Center for Chemical Genomics, 2012).
Activity calls are given as the source filed them. The rule behind the calls is not given here.

Assays:
Experiment in all cases: potency against CXCR6 with APJ panel – cell-based, beta-arrestin, DiscoveRx, uHTS hits, dose response (AID 624129)
[1] = target: C-C chemokine receptor type 6 (Homo sapiens) (UniProt P51684); details: CXCR6 beta-arrestin (DiscoveRx) antagonist cell assay
[2] = target: Beta-galactosidase (Escherichia coli) (UniProt Q8VNN2); details: CXCR6 beta-arrestin (DiscoveRx) antagonist cell assay, b-galactosidase
[3] = target: Apelin receptor (Homo sapiens) (UniProt P35414); details: CXCR6 beta-arrestin (DiscoveRx) antagonist cell assay, APJ
[4] = target: C-X-C chemokine receptor type 6 (Homo sapiens) (UniProt O00574); details: CXCR6 beta-arrestin (DiscoveRx) antagonist cell assay
[5] = CCR6, dose range 1, mean IC50 across replicates
[6] = dose range 1, mean IC50 across replicates
[7] = CXCR6, dose range 1, mean IC50 across replicates
[8] = CXCR6, run 1, dose range 2, at 80 µM (top of the series)

Sequence of Beta-galactosidase (Escherichia coli) (Q8VNN2 whole entry, looked up): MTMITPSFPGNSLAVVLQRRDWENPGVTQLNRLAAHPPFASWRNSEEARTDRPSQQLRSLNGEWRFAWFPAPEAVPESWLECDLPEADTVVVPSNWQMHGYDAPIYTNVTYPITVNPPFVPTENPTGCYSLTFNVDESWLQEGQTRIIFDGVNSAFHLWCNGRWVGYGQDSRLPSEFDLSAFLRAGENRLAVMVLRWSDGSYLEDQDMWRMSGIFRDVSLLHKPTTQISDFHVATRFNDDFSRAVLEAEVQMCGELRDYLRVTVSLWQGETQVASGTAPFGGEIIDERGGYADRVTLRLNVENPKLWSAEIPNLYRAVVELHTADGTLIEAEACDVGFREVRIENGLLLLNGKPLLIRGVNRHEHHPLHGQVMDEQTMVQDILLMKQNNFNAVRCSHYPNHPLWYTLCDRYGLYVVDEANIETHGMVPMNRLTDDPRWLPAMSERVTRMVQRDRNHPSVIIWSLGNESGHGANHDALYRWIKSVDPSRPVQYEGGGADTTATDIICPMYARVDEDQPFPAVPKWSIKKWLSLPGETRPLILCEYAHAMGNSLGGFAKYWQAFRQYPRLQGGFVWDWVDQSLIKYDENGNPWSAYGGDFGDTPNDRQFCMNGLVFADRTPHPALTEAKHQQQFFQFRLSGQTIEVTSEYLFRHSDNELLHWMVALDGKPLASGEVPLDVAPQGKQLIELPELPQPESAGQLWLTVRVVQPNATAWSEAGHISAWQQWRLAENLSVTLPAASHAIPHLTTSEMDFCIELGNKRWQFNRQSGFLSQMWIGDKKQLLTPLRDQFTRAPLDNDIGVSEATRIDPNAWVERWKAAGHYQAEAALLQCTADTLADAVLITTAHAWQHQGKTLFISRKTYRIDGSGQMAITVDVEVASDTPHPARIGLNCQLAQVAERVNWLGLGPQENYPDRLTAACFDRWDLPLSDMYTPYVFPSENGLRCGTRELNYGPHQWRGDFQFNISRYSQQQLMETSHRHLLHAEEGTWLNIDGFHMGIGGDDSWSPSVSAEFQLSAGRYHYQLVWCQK
Sequence of C-X-C chemokine receptor type 6 (Homo sapiens) (O00574 whole entry, looked up): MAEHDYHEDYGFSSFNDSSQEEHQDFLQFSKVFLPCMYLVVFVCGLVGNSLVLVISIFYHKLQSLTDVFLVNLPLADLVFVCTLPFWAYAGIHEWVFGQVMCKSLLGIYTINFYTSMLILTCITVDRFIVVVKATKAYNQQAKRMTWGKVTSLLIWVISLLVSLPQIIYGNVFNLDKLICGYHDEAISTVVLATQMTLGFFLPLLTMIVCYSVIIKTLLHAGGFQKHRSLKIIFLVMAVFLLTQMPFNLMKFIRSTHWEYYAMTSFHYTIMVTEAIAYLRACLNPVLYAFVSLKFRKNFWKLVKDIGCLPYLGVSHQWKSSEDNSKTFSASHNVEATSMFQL

| SMILES | IC50 ([1]; CCR6, dose range 1) | IC50 [1, 5] | IC50 ([1]; CCR6, run 2, dose range 1) | IC50 ([2]; dose range 1) | IC50 [2, 6] | IC50 ([3]; dose range 1) | IC50 [3, 6] | IC50 ([3]; run 2, dose range 1) | IC50 ([3]; run 3, dose range 1) | IC50 ([4]; CXCR6, dose range 1) | IC50 [4, 7] | inhibition [4, 8] | IC50 ([4]; CXCR6, run 2, dose range 1) | IC50 ([4]; CXCR6, run 1, dose range 2) | IC50 ([4]; CXCR6, run 2, dose range 2) | inhibition ([4]; CXCR6, run 1, dose range 2, at 20 µM (top of the series)) |
| --- | --- | --- | --- | --- | --- | --- | --- | --- | --- | --- | --- | --- | --- | --- | --- | --- |
| COc1ccc([N+](=O)[O-])c(S(=O)(=O)c2ccccc2)n1 | 22.6 µM | 19.5 µM | 16.5 µM | inactive | 50.7 µM | 21.5 µM | 22.9 µM | > 80 µM | 24.4 µM | inactive | 35.4 µM | 102% | 24.9 µM | – | – | – |
| CCOc1cc(Br)c(Br)c(C=Nc2ccc(NC(C)=O)cc2)c1O | – | 40.4 µM | 40.4 µM | > 80 µM (inactive) | > 80 µM | 45.8 µM | 45.8 µM | > 80 µM | > 80 µM | inactive | 19.8 µM | – | > 80 µM | 5.38 µM | 14.1 µM | – |
| COc1ccc(C(=O)/C=C/C(=O)N(CC(=O)NC2CCCCC2)Cc2cccs2)c(O)c1 | – | > 80 µM | > 80 µM | > 80 µM (inactive) | > 80 µM | – | > 80 µM | > 80 µM | > 80 µM | > 80 µM (inactive) | > 80 µM | -73% | > 80 µM | – | – | – |
| COCc1cc(=O)[nH]c(Nc2nc3ccc(C)cc3o2)n1 | 3.97 µM | 4.52 µM | 5.08 µM | > 80 µM (inactive) | > 80 µM | 4.2 µM | 7.6 µM | > 80 µM | 11 µM | – | 3.61 µM | – | > 80 µM | 3.3 µM | 3.93 µM | – |
| CCC1CCCCN1S(=O)(=O)c1ccc(NC(=O)c2nc(S(C)(=O)=O)ncc2Cl)cc1 (stereo not drawn) | 5.24 µM | 5.53 µM | 5.82 µM | > 80 µM (inactive) | > 80 µM | 7.03 µM | 6.68 µM | 7.18 µM | 5.85 µM | 7.42 µM | 8.97 µM | – | 7.17 µM | 10.4 µM | 10.9 µM | – |
| O=C1N[C@H](Cc2ccccc2)COC(=O)[C@H](Cc2ccc(F)cc2)CC/C=C/C[C@H]1CC(=O)N(CCO)Cc1ccccc1 | 5.96 µM | 7.08 µM | 8.19 µM | > 80 µM (inactive) | > 80 µM | – | 4.7 µM | > 80 µM | 4.7 µM | 3.29 µM | 5.31 µM | – | 7.32 µM | – | – | 67.7% |
| Cc1c(Nc2cc(Cl)c3nonc3c2[N+](=O)[O-])c(=O)n(-c2ccccc2)n1C | 3.16 µM | 3.35 µM | 3.55 µM | > 80 µM (inactive) | > 80 µM | 4.55 µM | 4.26 µM | 4.09 µM | 4.16 µM | 3.95 µM | 3.92 µM | – | 4.6 µM | 3.59 µM | 3.57 µM | – |
| CCC(=O)OCCNc1cc(Sc2nc3ccccc3s2)c2nonc2c1[N+](=O)[O-] | 8.93 µM | 8.72 µM | 8.5 µM | > 80 µM (inactive) | > 80 µM | 32.9 µM | 28 µM | 23.1 µM | > 80 µM | 8.94 µM | 8.4 µM | – | 8.87 µM | 10 µM | 5.77 µM | – |
| Cc1ccc(S(=O)(=O)Nc2cccc3cccnc23)cc1 | 7.97 µM | 8.52 µM | 9.06 µM | > 80 µM (inactive) | > 80 µM | 16.7 µM | 17.8 µM | 19 µM | 17.5 µM | 10.3 µM | 8.04 µM | 118% | 5.75 µM | – | – | – |
| O=C(C#Cc1ccccc1)c1ccc([N+](=O)[O-])cc1 | 1.46 µM | 1.72 µM | 1.98 µM | > 80 µM (inactive) | > 80 µM | 4.35 µM | 4.53 µM | 5.55 µM | 3.7 µM | 2.67 µM | 2.62 µM | 131% | 2.57 µM | – | – | – |
| O=C(N/N=C(\c1ccccc1)c1cccnc1)c1cccc(F)c1 | 4.35 µM | 4.64 µM | 4.93 µM | > 80 µM (inactive) | > 80 µM | 4.18 µM | 4.46 µM | 5.15 µM | 4.05 µM | 4.5 µM | 4.01 µM | – | 5.13 µM | 3.07 µM | 3.34 µM | – |
| COc1ccc(-n2c(O)c(/C=N/Nc3nc(C)cc(C)n3)c3ccccc3c2=O)cc1OC | 31.3 µM | 29.2 µM | 27.2 µM | > 80 µM (inactive) | > 80 µM | – | 49.6 µM | > 80 µM | 49.6 µM | > 80 µM (inactive) | > 80 µM | 118% | > 80 µM | – | – | – |
| CN(C(=O)CSC1=Nc2ccccc2C2=NC(c3ccccc3)C(=O)N12)C1CCCCC1 (stereo not drawn) | – | > 80 µM | > 80 µM | > 80 µM (inactive) | > 80 µM | – | > 80 µM | > 80 µM | > 80 µM | > 80 µM (inactive) | > 80 µM | -15.6% | > 80 µM | – | – | – |
| N#CC(C#N)=C1C=CC=CN1/C(=C\c1ccco1)C(=O)c1ccc(Cl)cc1 | 20.9 µM | 18.7 µM | 16.4 µM | 15.1 µM | 15.1 µM | 30.1 µM | 32.5 µM | 33.6 µM | 33.7 µM | inactive | 28 µM | 125% | 25 µM | – | – | – |
| CC(=NNc1nc2ccccc2s1)c1ncccn1 | 7.51 µM | 8.91 µM | 10.3 µM | > 80 µM (inactive) | > 80 µM | 16.9 µM | 17.4 µM | 20.5 µM | 14.8 µM | inactive | 11.3 µM | 125% | 10.5 µM | – | – | – |
| Cn1c(O)c(C2=NNC(c3ccc(Cl)cc3)C2)c(=O)n(C)c1=O (stereo not drawn) | 11.2 µM | 13.6 µM | 16 µM | 26.3 µM | 26.3 µM | 9.91 µM | 13.1 µM | 20 µM | 9.47 µM | inactive | 11.7 µM | – | 17 µM | 6.31 µM | 8.11 µM | – |
| Cc1ccc(C(=O)CNc2ccc(F)cc2)cc1 | 0.29 µM | 0.271 µM | 0.251 µM | > 80 µM (inactive) | > 80 µM | 0.364 µM | 0.281 µM | 0.236 µM | 0.242 µM | 0.476 µM | 0.435 µM | 113% | 0.395 µM | – | – | – |
| COc1cc(/C=C/c2ccc3cccc(O)c3n2)ccc1O | 13 µM | 12.9 µM | 12.9 µM | > 80 µM (inactive) | > 80 µM | 15.3 µM | 19.1 µM | 20.7 µM | 21.4 µM | inactive | 14.4 µM | 131% | 13.1 µM | – | – | – |
| O=C(Nc1nccs1)c1sc2cc(Cl)ccc2c1Cl | 9.63 µM | 10.1 µM | 10.6 µM | > 80 µM (inactive) | > 80 µM | 48.2 µM | 46.8 µM | 45.4 µM | > 80 µM | inactive | 19 µM | – | 46.1 µM | 7.2 µM | 10.3 µM | – |
| CCn1c(=O)c([N+](=O)[O-])c(Cl)c2ccccc21 | 3.29 µM | 3.6 µM | 3.91 µM | > 80 µM (inactive) | > 80 µM | 31.9 µM | 35.8 µM | 21.3 µM | 54.3 µM | 4.19 µM | 7.64 µM | – | 17.8 µM | 4.43 µM | 4.13 µM | – |
| O=[N+]([O-])c1cc2oc3c(c2c(C=NCc2ccccc2)c1O)CCCC3 | 27.3 µM | 39.8 µM | 52.2 µM | > 80 µM (inactive) | > 80 µM | 25.5 µM | 25.5 µM | > 80 µM | > 80 µM | inactive | 20.9 µM | – | > 80 µM | 4.04 µM | 6.46 µM | – |
| O=[N+]([O-])c1c(Nc2cccc(O)c2)cc(Cl)c2nonc12 | 12.2 µM | 13.3 µM | 14.3 µM | > 80 µM (inactive) | > 80 µM | 18 µM | 19.1 µM | 17 µM | 22.2 µM | inactive | 13.8 µM | 113% | 11.3 µM | – | – | – |
